Source: the supplement of paper PMC10307832

Columns and labels:
Experiment in all cases: relative viability (nuclei count vs DMSO), 5 days (fraction); higher = more cells survive
NCI-H647 = system: NCI-H647
Summary of the method: (§1)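 Lung cancer cell lines were pin-tool dosed in 1536-well plates on the day after seeding, with either a lone drug or a fixed anchor-drug dose plus five library-drug doses (not always all listed) in √10 steps. Nuclei were counted on 4× images after 5 days. Relative viability is the ratio of treated-well to vehicle-well nuclei counts, with each value a median of duplicate plates.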

H3255 = system: H3255
Summary of the method: as §1

COR-L23 = system: COR-L23
Summary of the method: as §1

LOU-NH91 = system: LOU-NH91
Summary of the method: as §1

HCC-15 = system: HCC-15
Summary of the method: as §1

NCI-H2347 = system: NCI-H2347
Summary of the method: as §1

UMC-11 = system: UMC-11
Summary of the method: as §1

NCI-H1563 = system: NCI-H1563
Summary of the method: as §1

PC-14 = system: PC-14
Summary of the method: as §1

NCI-H1734 = system: NCI-H1734
Summary of the method: as §1

NCI-H2405 = system: NCI-H2405
Summary of the method: as §1

NCI-H520 = system: NCI-H520
Summary of the method: as §1

NCI-H2023 = system: NCI-H2023
Summary of the method: as §1

NCI-H1650 = system: NCI-H1650
Summary of the method: as §1

NCI-H322M = system: NCI-H322M
Summary of the method: as §1

NCI-H441 = system: NCI-H441
Summary of the method: as §1

NCI-H3122 = system: NCI-H3122
Summary of the method: as §1

EPLC-272H = system: EPLC-272H
Summary of the method: as §1

201T = system: 201T
Summary of the method: as §1

O=c1cc(-c2cccc3c2Sc2ccccc2S3)oc(N2CCOCC2)c1 + CC(C)C[C@H](NC(=O)[C@H](Cc1ccccc1)NC(=O)c1cnccn1)B(O)O [Bortezomib] (partner 0.002 µM) was tested, and the relative viability (NCI-H647; first compound 0.08 µM) was 0.978, the relative viability (NCI-H647; first compound 0.253 µM) was 1.3 and the relative viability (NCI-H647; first compound 0.8 µM) was 1.04. The relative viability (NCI-H647; first compound 2.53 µM) was 0.85, the relative viability (NCI-H647; first compound 8 µM) was 1.57 and the relative viability (H3255; first compound 0.08 µM) was 0.837. It also gave a relative viability (H3255; first compound 0.253 µM) of 0.835, a relative viability (H3255; first compound 0.8 µM) of 0.837 and a relative viability (H3255; first compound 2.53 µM) of 0.646. The relative viability (H3255; first compound 8 µM) was 1.07, the relative viability (COR-L23; first compound 0.08 µM) was 1.13 and the relative viability (COR-L23; first compound 0.253 µM) was 1.49. For the same compound, the relative viability (COR-L23; first compound 0.8 µM) was 1.2, the relative viability (COR-L23; first compound 2.53 µM) was 1 and the relative viability (COR-L23; first compound 8 µM) was 1.48. It also gave a relative viability (LOU-NH91; first compound 0.08 µM) of 0.481, a relative viability (LOU-NH91; first compound 0.253 µM) of 0.514 and a relative viability (LOU-NH91; first compound 0.8 µM) of 0.546. For the same compound, the relative viability (LOU-NH91; first compound 2.53 µM) was 0.489, the relative viability (LOU-NH91; first compound 8 µM) was 0.502 and the relative viability (HCC-15; first compound 0.08 µM) was 1.07. It also gave a relative viability (HCC-15; first compound 0.253 µM) of 1.27, a relative viability (HCC-15; first compound 0.8 µM) of 1.22 and a relative viability (HCC-15; first compound 2.53 µM) of 1. For the same compound, the relative viability (HCC-15; first compound 8 µM) was 1.16, the relative viability (NCI-H2347; first compound 0.08 µM) was 0.947 and the relative viability (NCI-H2347; first compound 0.253 µM) was 1.17. It also gave a relative viability (NCI-H2347; first compound 0.8 µM) of 1.09, a relative viability (NCI-H2347; first compound 2.53 µM) of 0.902 and a relative viability (NCI-H2347; first compound 8 µM) of 1.73. It also gave a relative viability (UMC-11; first compound 0.08 µM) of 0.774, a relative viability (UMC-11; first compound 0.253 µM) of 1.19 and a relative viability (UMC-11; first compound 0.8 µM) of 1.24. The relative viability (UMC-11; first compound 2.53 µM) was 0.535, the relative viability (UMC-11; first compound 8 µM) was 1.01 and the relative viability (NCI-H1563; first compound 0.08 µM) was 0.773. It also gave a relative viability (NCI-H1563; first compound 0.253 µM) of 0.857, a relative viability (NCI-H1563; first compound 0.8 µM) of 0.767 and a relative viability (NCI-H1563; first compound 2.53 µM) of 0.92. It also gave a relative viability (NCI-H1563; first compound 8 µM) of 0.83, a relative viability (PC-14; first compound 0.08 µM) of 1.08 and a relative viability (PC-14; first compound 0.253 µM) of 1.01. The relative viability (PC-14; first compound 0.8 µM) was 0.962, the relative viability (PC-14; first compound 2.53 µM) was 0.866 and the relative viability (PC-14; first compound 8 µM) was 0.882. It also gave a relative viability (NCI-H1734; first compound 0.08 µM) of 0.865, a relative viability (NCI-H1734; first compound 0.253 µM) of 1.06 and a relative viability (NCI-H1734; first compound 0.8 µM) of 1.05. For the same compound, the relative viability (NCI-H1734; first compound 2.53 µM) was 0.844, the relative viability (NCI-H1734; first compound 8 µM) was 1.18 and the relative viability (NCI-H2405; first compound 0.08 µM) was 0.949. It also gave a relative viability (NCI-H2405; first compound 0.253 µM) of 1.11, a relative viability (NCI-H2405; first compound 0.8 µM) of 0.996 and a relative viability (NCI-H2405; first compound 2.53 µM) of 0.98. It also gave a relative viability (NCI-H2405; first compound 8 µM) of 1.03, a relative viability (NCI-H520; first compound 0.08 µM) of 0.679 and a relative viability (NCI-H520; first compound 0.253 µM) of 0.619. It also gave a relative viability (NCI-H520; first compound 0.8 µM) of 0.732, a relative viability (NCI-H520; first compound 2.53 µM) of 0.507 and a relative viability (NCI-H520; first compound 8 µM) of 0.604. It also gave a relative viability (NCI-H2023; first compound 0.08 µM) of 1, a relative viability (NCI-H2023; first compound 0.253 µM) of 1.1 and a relative viability (NCI-H2023; first compound 0.8 µM) of 0.988. It also gave a relative viability (NCI-H2023; first compound 2.53 µM) of 0.528, a relative viability (NCI-H2023; first compound 8 µM) of 0.937 and a relative viability (NCI-H1650; first compound 0.08 µM) of 0.212. For the same compound, the relative viability (NCI-H1650; first compound 0.253 µM) was 0.168, the relative viability (NCI-H1650; first compound 0.8 µM) was 0.189 and the relative viability (NCI-H1650; first compound 2.53 µM) was 0.16. The relative viability (NCI-H1650; first compound 8 µM) was 0.184, the relative viability (NCI-H322M; first compound 0.08 µM) was 1.21 and the relative viability (NCI-H322M; first compound 0.253 µM) was 1.21. It also gave a relative viability (NCI-H322M; first compound 0.8 µM) of 1.2, a relative viability (NCI-H322M; first compound 2.53 µM) of 1.04 and a relative viability (NCI-H322M; first compound 8 µM) of 1.17. For the same compound, the relative viability (NCI-H441; first compound 0.08 µM) was 0.488, the relative viability (NCI-H441; first compound 0.253 µM) was 1.25 and the relative viability (NCI-H441; first compound 0.8 µM) was 0.98. For the same compound, the relative viability (NCI-H441; first compound 2.53 µM) was 0.45, the relative viability (NCI-H441; first compound 8 µM) was 0.594 and the relative viability (NCI-H3122; first compound 0.08 µM) was 1.05. The relative viability (NCI-H3122; first compound 0.253 µM) was 1.15, the relative viability (NCI-H3122; first compound 0.8 µM) was 1.08 and the relative viability (NCI-H3122; first compound 2.53 µM) was 1. It also gave a relative viability (NCI-H3122; first compound 8 µM) of 1.12, a relative viability (EPLC-272H; first compound 0.08 µM) of 0.806 and a relative viability (EPLC-272H; first compound 0.253 µM) of 1.09. For the same compound, the relative viability (EPLC-272H; first compound 0.8 µM) was 1.02, the relative viability (EPLC-272H; first compound 2.53 µM) was 0.721 and the relative viability (EPLC-272H; first compound 8 µM) was 0.802. It also gave a relative viability (201T; first compound 0.08 µM) of 1.07, a relative viability (201T; first compound 0.253 µM) of 1.15 and a relative viability (201T; first compound 0.8 µM) of 1.15. It also gave a relative viability (201T; first compound 2.53 µM) of 1.02 and a relative viability (201T; first compound 8 µM) of 1.08.
